The text below walks through data of PMC9604255, “Discovery of Simple Diacylhydrazine-Functionalized Cinnamic Acid Derivatives as Potential Microtubule Stabilizers” (International Journal of Molecular Sciences, 2022).

In one assay the test system is A549 cancer cells. The assay is described as follows: MTT antiproliferative assay, A549. In kind it is cell-based, human. As to conditions: Homo sapiens, A549; MTT assay after 48 h. From the text:
(§1) An A549 (human non-small cell lung cancer cell line) cell line was purchased from the Shanghai Cell Bank of the Chinese Academy of Sciences; PC-3 (human prostate cancer cell line) cell line was donated by the Key Laboratory of Natural Product Chemistry of the Chinese Academy of Sciences of Guizhou Province; HepG2 (human liver cancer cell line) and NRK 52E (normal rat kidney cell line) cell line was donated by Guizhou Medical University; all cell lines were kept by the laboratory.
(§2) The antiproliferative activity of target compounds against A549, PC-3, HepG2, and NRK-52E were determined by MTT assay, as described in previous articles. The assay was recorded at 490 nm by an Infinite® M200 PRO multimode microplate (Tecan, Männedorf, Switzerland).
In general terms: Tetrazolium dyes change colour on reduction, which living cells bring about.

The test system of another assay is PC-3 cancer cells. The assay is described as follows: MTT antiproliferative assay, PC-3. In kind it is cell-based, human. As to conditions: Homo sapiens; MTT assay after 48 h.
Excerpt: as §1, §2

The test system of a further assay is HepG2 cancer cells. Put plainly: MTT antiproliferative assay, HepG2. In kind it is cell-based, human. The following applies: Homo sapiens, HepG2, 48 h, MTT assay after 48 h; read-out: IC50 HepG2.
Excerpt: as §1, §2

For the next assay, the system named is NRK-52E cells. Put plainly: MTT cytotoxicity assay, normal NRK-52E cells. The class given is cell-based. The following applies: MTT assay after 48 h, normal rat kidney cell line.
Excerpt: as §1, §2

For assay [1], the system named is cellular microtubule network of HepG2 cells. The assay is described as follows: Immunofluorescence staining of tubulin. The following applies: 3 and 6 μM, 24 h. The class given is cell-based, human. The procedure: According to the previous methods, compound solutions of various concentrations were added to a 6-well plate in which HepG2 cells had been seeded for 12 h. After incubation for 24 h and washed with phosphate-buffered saline (PBS, 10 mM, pH 7.3), each well was treated with 4% formaldehyde solution for 15 min and washed with 0.1% Triton X-100 of phosphate-buffered saline (PBS, 10 mM, pH 7.3). After that, the fixed cells were incubated with diluted tubulin-tracker red for 40 min in a dark environment, followed by washing three times by 0.1% Triton X-100 of phosphate-buffered saline (PBS, 10 mM, pH 7.3). Finally, each well was added DAPI (2 μg/mL). Finally, the results were observed using a Nikon ECLIPSE Ti-S fluorescent microscope (Nikon Co, Tokyo, Japan).

For assay [2], the target named is T1, tubulin (Sus scrofa, UniProt P02554).
T1 construct: purchased Cytoskeleton, Inc. BK004P
The assay is described as follows: Tubulin polymerization assay in vitro. The class given is biochemical. The following applies: 10 μM and 20 μM; 4 mg/mL tubulin, 37 °C, 340 nm. The procedure: The tubulin polymerization assay in vitro was determined by HTS-Tubulin Polymerization Assay Kit (#BK004P, Cytoskeleton, Inc., Denver, CO, USA) as described in previous articles. The plate was pre-warmed at 37 °C, and the reaction assay contained 100 μL 4 mg/mL tubulin in G-PEM buffer. Then, 10 μL (10×) compounds solution or 100 μM paclitaxel solution as a control. Finally, the polymerization was carried out at 37 °C and recorded at 340 nm each 10 s for 70 min using Cytation™ 5 multi-mode readers.

The subject of assay [3] is tubulin. Put plainly: Tubulin polymerization via TEM. The class given is biochemical. The following applies: 20 μM + 4 mg/mL tubulin. The method, then: Briefly, according to the protocol of tubulin polymerization assay, the 100 μL centrifuge tubes were pre-warmed at 37 °C, and the reaction assay contained 20 μL 4 mg/mL tubulin in G-PEM buffer. Then, 2 μL (10×) compounds solution was added. Finally, the assay was carried out at 37 °C for 30 min. The formed microtubules were transferred to Formvar-caron-coated copper grids, negatively stained with 1% phosphotungstic acid, and visualized under a transmission electron microscope.

The test system of assay [4] is HepG2 cells. Put plainly: Cell cycle analysis by flow cytometry. In kind it is cell-based, human. The following applies: HepG2, 24 μM, 24 h (0 μM: 17.68%). The method, then: The cells in the 6-well plates were carefully collected 24 h after dosing. After the cells were washed with pre-cooled PBS, the pre-cooled 70% ethanol solution was added for fixation (4 °C overnight). After that, the cells were washed with PBS, and incubated with 1 mg/mL RNase A for 30 min at 37 °C). Then, […] PI staining solution was added and incubated in the dark for 30 min at 4 °C. Finally, the cell arrest was analyzed by the FACSCalibur™ flow cytometer (Becton Dickinson Immunocytometry Systems, San Jose, CA, USA) as previously described.
(A flow cytometer gives signals particle by particle.)

The test system of a further assay is A549 cells. The assay is described as follows: Scratch test (cell migration). In kind it is cell-based, human. The procedure: According to the previous methods, A549 cells of the logarithmic growth stage were cultured in 6-well plates with two lines on the back, with each well containing a density of 1 × 10^6 cells/mL. After the cells adhered to the wall, three uniform thin lines were drawn in each well by a sterile pipette tip. Afterward, the medium containing 1% fetal bovine serum (FBS) and various concentrations of compounds were added in wells. After the different time of incubation, the cells were performed by an inverted fluorescence microscope. Then the scratch healing rate was calculated: Migration distance (n h) = edge distance (0 h) − edge distance (12 h or 24 h).

Assay [5] has as its system HepG2 cells. The assay is described as follows: Hoechst apoptosis experiment. The class given is cell-based, human. The following applies: HepG2, 6 μM, 24 h. The method, then:
In this assay, HepG2 cells were seeded in 6-well plates, after 24 h of incubation, different compounds were added at various concentrations, and cells were incubated again for 24 h. Afterward, the medium was removed and cells were washed twice with phosphate-buffered saline (PBS, 10 mM, pH 7.3), and fixed with 4% paraformaldehyde for 15 min at room temperature, then stained with […] Hoechst 33258 in PBS for 20 min at 37 °C in the dark. After incubation, the cells were incubated with an anti-fluorescent attenuator and imaged with an inverted fluorescence microscope.

Assay [6] has as its system A549, PC-3 and HepG2 cancer cell lines. Put plainly: MTT antiproliferative assay, three cancer lines together. In kind it is cell-based. The following applies: Homo sapiens; range over A549, PC-3 and HepG2; read-out: IC50 values against three cancer lines. From the text:
An A549 (human non-small cell lung cancer cell line) cell line was purchased from the Shanghai Cell Bank of the Chinese Academy of Sciences; PC-3 (human prostate cancer cell line) cell line was donated by the Key Laboratory of Natural Product Chemistry of the Chinese Academy of Sciences of Guizhou Province; HepG2 (human liver cancer cell line) and NRK 52E (normal rat kidney cell line) cell line was donated by Guizhou Medical University; all cell lines were kept by the laboratory. Cells were maintained in RPMI 1640 or DMEM complete medium.
The antiproliferative activity of target compounds against A549, PC-3, HepG2, and NRK-52E were determined by MTT assay, as described in previous articles. The assay was recorded at 490 nm by an Infinite® M200 PRO multimode microplate (Tecan, Männedorf, Switzerland). Curcumin, gefitinib, and colchicine were used as positive controls.

T1 sequence (P02554 whole entry): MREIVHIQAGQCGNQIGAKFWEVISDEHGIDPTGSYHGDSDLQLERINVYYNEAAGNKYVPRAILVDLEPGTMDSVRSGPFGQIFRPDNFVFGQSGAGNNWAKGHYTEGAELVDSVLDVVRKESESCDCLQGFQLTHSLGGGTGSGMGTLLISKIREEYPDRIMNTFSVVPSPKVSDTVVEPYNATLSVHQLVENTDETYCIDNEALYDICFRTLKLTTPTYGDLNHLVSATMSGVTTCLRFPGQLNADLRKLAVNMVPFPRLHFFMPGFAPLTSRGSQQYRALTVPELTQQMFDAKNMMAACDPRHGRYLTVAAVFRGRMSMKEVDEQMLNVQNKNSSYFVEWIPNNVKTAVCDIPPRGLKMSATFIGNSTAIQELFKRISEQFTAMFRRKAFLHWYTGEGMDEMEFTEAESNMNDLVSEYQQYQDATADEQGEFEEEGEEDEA
T1 sequence (P02550 whole entry partner): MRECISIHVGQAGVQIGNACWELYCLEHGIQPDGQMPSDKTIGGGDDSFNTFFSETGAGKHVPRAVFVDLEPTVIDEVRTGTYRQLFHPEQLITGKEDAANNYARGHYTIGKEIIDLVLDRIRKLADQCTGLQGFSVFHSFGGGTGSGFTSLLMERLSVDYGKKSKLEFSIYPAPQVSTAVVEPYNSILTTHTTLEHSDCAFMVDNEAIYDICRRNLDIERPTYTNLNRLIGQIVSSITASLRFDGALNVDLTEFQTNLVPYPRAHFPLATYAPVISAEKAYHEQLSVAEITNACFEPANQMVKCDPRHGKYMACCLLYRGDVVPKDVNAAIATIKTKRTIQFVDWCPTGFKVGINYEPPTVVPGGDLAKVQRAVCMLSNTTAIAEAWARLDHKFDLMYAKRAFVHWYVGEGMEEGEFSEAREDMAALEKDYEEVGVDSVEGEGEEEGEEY

As to `COc1cccc(/C=C/C(=O)NNC(=O)/C=C/c2ccc([N+](=O)[O-])cc2)c1` [I23], the IC50 in the assay on A549 cancer cells was 5.99 ± 1.07 µM; with PC-3 cancer cells, 4.17 ± 0.57 µM; in the assay on HepG2 cancer cells, 3.36 ± 0.8 µM; with NRK-52E cells, 6.99 ± 1.6 µM; in [6], 3.36 to 5.99 µM. In [1], the “Effect on cellular microtubule network (immunofluorescence)” value is “agminated microtubule network and wrinkled nucleus were observed”. The “Effect on tubulin polymerization” value at tubulin [2] is “could stabilize tubulin assembly and promote protofilament assembly in a dosage-dependent manner”. Moreover, the “Effect on tubulin polymerization seen by TEM” value in the assay on tubulin [3] is listed as “more large nonlinear disorganized aggregations”. In the assay on HepG2 cells [4], the “Percentage of cell, G2/M” value was 20.56%. The “Cell relative migration (migration rate)” value with A549 cells (A549, 3 μM, 12 h (control 12.5%)) worked out at 8.93%; with A549 cells (A549, 3 μM, 24 h (control 24.4%)), 18.7%; with A549 cells (A549, 6 μM, 12 h (control 12.5%)) it was 6.07%; with A549 cells (A549, 6 μM, 24 h (control 24.4%)), 13.2%. The “Apoptosis effect (Hoechst 33258 staining)” value with HepG2 cells [5] is “a strong apoptotic phenomenon happened”.

Usually IC50 stands for the concentration needed to halve the response being measured.
